Earlier results, collected in patent publication US12397030B2, “Polyphenol compositions and uses thereof” (METAGENICS, INC., priority 2019, dated 2025).

Experiments:
[1] = humans
[2] = tested on: ATP-binding cassette transporter A1 (ABCA1); conditions: enhances reverse cholesterol transport

time by which no longer detected [1]	time to appearance following consumption [1]	elimination half-life ([1]; after consumption)	ABCA1 expression in macrophages [2]	Structure (SMILES)
≤ 5 h	~30 min	42.6 min	–	O=c1oc2c(O)c(O)cc3c(=O)oc4c(O)c(O)cc1c4c23 [ellagic acid]
–	–	–	upregulation	O=c1oc2cc(O)ccc2c2ccccc12 [urolithin B]
